Data reported in US6355799B1, “Substituted benzene compounds, process for their preparation, and herbicidal and defoliant compositions containing them” (ISK Americas Incorporated, priority 1997, dated 2002).

How the values were obtained:
Assay type in all cases: in vivo
[1] = test system: redroot pigweed (Amaranthus retroflexus, AMARE); test: Pre-emerge test, greenhouse herbicide activity screening; conditions: pre-emerge, 14 days after application, scale 0-100
From the text: (§1) A standard greenhouse herbicide activity screening system was used to evaluate the herbicidal efficacy and crop safety of these test compounds. Seven broadleaf weed species including redroot pigweed (Amaranthus retroflexus, AMARE, velvetleaf (Abutilon theophrasti, ABUTH), sicklepod (Cassia obtusifolia, CASOB), ivyleaf morningglory (Ipomoea hederacea, IPOHE), lambsquarters (Chenopodium album, CHEAL), common ragweed (Ambrosia artemisizfolia L., AMBEL), and cocklebur (Xanthium strumarium, XANST) were used as test species. Four grass weed species including green foxtail (Setaria viridis, SETVI), barnyardgrass (Echinochloa crus-galli, ECHCG), johnsongrass (Sorghum halepense, SORHA), and large crabgrass (Digitaria sanguinalis, DIGSA) were also used. In addition, three crop species, field corn (Zea mays L., var. Dekalb 535, CORN), soybean (Glycine max L., var. Pella 86, SOY), and is upland rice (Oryza sp., var. Tebonnet, RICE) were included.
(§2) All plants were grown in 10 cm square plastic pots which were filled with a sandy loam soil mix. For pre-emerge tests, seeds were planted one day prior to application of the test compounds. For post-emerge tests, seeds were planted 8-21 days prior to the test to allow emergence and good foliage development prior to application of the test substances. At the time of the post-emerge application, plants of all species were usually at the 2-3 leaf stage of development.
All test compounds Were dissolved in acetone and applied to the test units in a volume of 187 l /ha. […] Plants were arranged on a shelf so that the top of the canopy (post-emerge) or top of the soil surface (pre-emerge) was 40-45 cm below the nozzle. Pressurized air was used to force the test solution through the nozzle as it was mechanically advanced (via electrically driven chain drive) over the top of all test plants/pots. This application simulates a typical commercial field herbicide application.
(§3) In the post-emerge test, a commercial non-ionic surfactant was also included (0.25% v/v) to enhance wetting of the leaf surfaces of target plants. Immediately after application, test units of the pre-emerge applications were watered at the soil surface to incorporate the test materials. Subsequently, these test units were bottom-watered. Post-emerge test units were always bottom-watered.
(§4) At 14 days after application of the test materials, phytotoxicity ratings were recorded. A rating scale of 0-100 was used as previously described in Research Methods in Weed Science, 2nd edition, B. Truelove, Ed., Southern Weed Science Society, Auburn University, Auburn, Ala. 1977. Briefly, “0” corresponds to no damage and “100” corresponds to complete death of all plants in the test unit. This scale was used both to determine efficacy against weed species and damage to crop species. Herbicide activity data for various compounds of this invention, which are shown by compound No. in Tables 1-8, are shown in Tables 11 and 12.

[2] = test system: ivyleaf morningglory (Ipomoea hederacea, IPOHE); test: as above; conditions: pre-emerge, 14 days after application, scale 0-100
From the text: as §1, §2
(§5) All test compounds Were dissolved in acetone and applied to the test units in a volume of 187 l /ha. Test materials were applied at rates ranging from 15 g ai/ha to 1000 g ai/ha using a track sprayer equipped with a TJ8001E even flow flat fan spray nozzle. Plants were arranged on a shelf so that the top of the canopy (post-emerge) or top of the soil surface (pre-emerge) was 40-45 cm below the nozzle. Pressurized air was used to force the test solution through the nozzle as it was mechanically advanced (via electrically driven chain drive) over the top of all test plants/pots. This application simulates a typical commercial field herbicide application.
as §3, §4

[3] = test system: green foxtail (Setaria viridis, SETVI); test: as above; conditions: pre-emerge, 14 days after application, scale 0-100
From the text: as §1, §2, §5, §3, §4

[4] = test system: velvetleaf (Abutilon theophrasti, ABUTH); test: as above; conditions: pre-emerge, 14 days after application, scale 0-100
From the text: as §1, §2, §5, §3, §4

[5] = test system: lambsquarters (Chenopodium album, CHEAL); test: as above; conditions: pre-emerge, 14 days after application, scale 0-100
From the text: as §1, §2, §5, §3, §4

[6] = test system: barnyardgrass (Echinochloa crus-galli, ECHCG); test: as above; conditions: pre-emerge, 14 days after application, scale 0-100
From the text: as §1, §2, §5, §3, §4

[7] = test system: sicklepod (Cassia obtusifolia, CASOB); test: as above; conditions: pre-emerge, 14 days after application, scale 0-100
From the text: as §1, §2, §5, §3, §4

[8] = test system: large crabgrass (Digitaria sanguinalis, DIGSA); test: as above; conditions: pre-emerge, 14 days after application, scale 0-100
From the text: as §1, §2, §5, §3, §4

[9] = test system: ivyleaf morningglory (Ipomoea hederacea, IPOHE); test: Post-emerge test, greenhouse herbicide activity screening; conditions: post-emerge, 14 days after application, rating scale 0-100
From the text: as §1, §2, §5, §3, §4

[10] = test system: green foxtail (Setaria viridis, SETVI); test: as above; conditions: post-emerge, 14 days after application, rating scale 0-100
From the text: as §1, §2, §5, §3, §4

[11] = test system: velvetleaf (Abutilon theophrasti, ABUTH); test: as above; conditions: post-emerge, 14 days after application, rating scale 0-100
From the text: as §1, §2, §5, §3, §4

[12] = test system: lambsquarters (Chenopodium album, CHEAL); test: as above; conditions: post-emerge, 14 days after application, rating scale 0-100
From the text: as §1, §2, §5, §3, §4

[13] = test system: barnyardgrass (Echinochloa crus-galli, ECHCG); test: as above; conditions: post-emerge, 14 days after application, rating scale 0-100
From the text: as §1, §2, §5, §3, §4

[14] = test system: sicklepod (Cassia obtusifolia, CASOB); test: as above; conditions: post-emerge, 14 days after application, rating scale 0-100
From the text: as §1, §2, §5, §3, §4

[15] = test system: redroot pigweed (Amaranthus retroflexus, AMARE); test: as above; conditions: post-emerge, 14 days after application, rating scale 0-100
From the text: as §1, §2, §5, §3, §4

[16] = test system: large crabgrass (Digitaria sanguinalis, DIGSA); test: as above; conditions: post-emerge, 14 days after application, rating scale 0-100
From the text: as §1, §2, §5, §3, §4

Cn1c(C(F)(F)F)cc(=O)n(-c2ccc(Cl)cc2NC(=O)c2ccc3ccccc3c2)c1=O [Compound 2-131, 3-[4-chloro-2-(2-naphthoylamino)phenyl]-1-methyl-6-trifluoromethyl-2,4(1H, 3H)-pyrimidinedione]
phytotoxicity rating AMARE ([1]; 63 g ai/ha): 90 | phytotoxicity rating AMARE ([1]; 250 g ai/ha): 95 | phytotoxicity rating IPOHE ([2]; 63 g ai/ha): 30 | phytotoxicity rating IPOHE ([2]; 250 g ai/ha): 85 | phytotoxicity rating SETVI ([3]; 63 g ai/ha): 40 | phytotoxicity rating SETVI ([3]; 250 g ai/ha): 90 | phytotoxicity rating ABUTH ([4]; 63 g ai/ha): 85 | phytotoxicity rating ABUTH ([4]; 250 g ai/ha): 100 | phytotoxicity rating CHEAL ([5]; 63 g ai/ha): 90 | phytotoxicity rating CHEAL ([5]; 250 g ai/ha): 100 | phytotoxicity rating ECHCG ([6]; 63 g ai/ha): 10 | phytotoxicity rating ECHCG ([6]; 250 g ai/ha): 60 | phytotoxicity rating CASOB ([7]; 63 g ai/ha): 60 | phytotoxicity rating CASOB ([7]; 250 g ai/ha): 95 | phytotoxicity rating DIGSA ([8]; 63 g ai/ha): 40 | phytotoxicity rating DIGSA ([8]; 250 g ai/ha): 80 | IPOHE phytotoxicity rating ([9]; 63 g ai/ha): 100 | IPOHE phytotoxicity rating ([9]; 250 g ai/ha): 100 | SETVI phytotoxicity rating ([10]; 63 g ai/ha): 70 | SETVI phytotoxicity rating ([10]; 250 g ai/ha): 90 | ABUTH phytotoxicity rating ([11]; 63 g ai/ha): 100 | ABUTH phytotoxicity rating ([11]; 250 g ai/ha): 100 | CHEAL phytotoxicity rating ([12]; 63 g ai/ha): 100 | CHEAL phytotoxicity rating ([12]; 250 g ai/ha): 100 | ECHCG phytotoxicity rating ([13]; 63 g ai/ha): 30 | ECHCG phytotoxicity rating ([13]; 250 g ai/ha): 60 | CASOB phytotoxicity rating ([14]; 63 g ai/ha): 80 | CASOB phytotoxicity rating ([14]; 250 g ai/ha): 100 | AMARE phytotoxicity rating ([15]; 63 g ai/ha): 100 | AMARE phytotoxicity rating ([15]; 250 g ai/ha): 100 | DIGSA phytotoxicity rating ([16]; 63 g ai/ha): 30 | DIGSA phytotoxicity rating ([16]; 250 g ai/ha): 70
